Measured values published in ChEMBL document CHEMBL3108764, “Tankyrase inhibitors: potential treatment of hyperproliferative diseases” (ACS Med Chem Lett, 2014).
pIC50: −log10 of the molar value.

Assays:
[1] = biological target: T1, Poly [ADP-ribose] polymerase tankyrase-1 (Homo sapiens, UniProt O95271); experiment: Inhibition of human TNKS1 incubated for 30 mins prior to substrate addition measured after 2 hrs by HTRF method
T1 sequence (O95271 whole entry): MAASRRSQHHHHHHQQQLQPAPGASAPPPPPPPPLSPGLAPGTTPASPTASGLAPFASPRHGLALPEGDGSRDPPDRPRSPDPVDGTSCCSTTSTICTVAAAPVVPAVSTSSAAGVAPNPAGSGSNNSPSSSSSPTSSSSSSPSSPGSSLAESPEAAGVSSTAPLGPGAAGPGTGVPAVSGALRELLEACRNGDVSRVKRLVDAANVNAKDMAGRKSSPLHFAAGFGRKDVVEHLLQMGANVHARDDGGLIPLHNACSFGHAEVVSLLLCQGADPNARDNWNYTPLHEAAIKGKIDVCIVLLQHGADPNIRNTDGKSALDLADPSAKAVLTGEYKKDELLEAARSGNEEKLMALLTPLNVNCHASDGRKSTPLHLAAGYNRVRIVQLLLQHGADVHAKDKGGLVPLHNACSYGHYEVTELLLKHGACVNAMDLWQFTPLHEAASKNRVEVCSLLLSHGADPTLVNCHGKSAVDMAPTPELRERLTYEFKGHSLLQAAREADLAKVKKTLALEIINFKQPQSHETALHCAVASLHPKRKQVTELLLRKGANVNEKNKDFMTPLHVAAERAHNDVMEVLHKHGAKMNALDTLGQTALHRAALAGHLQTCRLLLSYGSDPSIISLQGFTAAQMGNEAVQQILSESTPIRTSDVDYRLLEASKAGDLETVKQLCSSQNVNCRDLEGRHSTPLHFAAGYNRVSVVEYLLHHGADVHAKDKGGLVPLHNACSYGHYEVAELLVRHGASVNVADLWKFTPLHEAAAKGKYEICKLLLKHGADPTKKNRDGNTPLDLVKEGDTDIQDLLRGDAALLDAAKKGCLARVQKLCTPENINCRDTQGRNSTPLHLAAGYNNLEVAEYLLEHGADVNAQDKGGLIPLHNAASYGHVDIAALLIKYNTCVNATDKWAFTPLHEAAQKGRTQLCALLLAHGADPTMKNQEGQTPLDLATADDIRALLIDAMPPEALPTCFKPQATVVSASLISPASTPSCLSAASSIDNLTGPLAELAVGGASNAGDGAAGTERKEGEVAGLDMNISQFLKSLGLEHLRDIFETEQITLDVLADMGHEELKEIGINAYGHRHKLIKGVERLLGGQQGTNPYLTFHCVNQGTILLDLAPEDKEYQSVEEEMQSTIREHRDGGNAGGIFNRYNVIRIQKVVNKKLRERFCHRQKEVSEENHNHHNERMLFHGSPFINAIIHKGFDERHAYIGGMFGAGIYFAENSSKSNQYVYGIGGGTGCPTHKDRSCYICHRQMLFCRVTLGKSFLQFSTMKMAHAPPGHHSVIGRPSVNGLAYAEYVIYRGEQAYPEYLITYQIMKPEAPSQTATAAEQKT

[2] = biological target: T1, Poly [ADP-ribose] polymerase tankyrase-1; experiment: Inhibition of human TNKS1 after 1 to 2 hrs by fluorescence polarization method

pIC50 [1]	pIC50 [2]	SMILES
7.50	8.10	N#Cc1c(Cn2c(=O)n(C[C@H]3CC[C@H](C(=O)O)CC3)c(=O)c3ccccc32)cccc1C(F)(F)F
7.30	8.20	Cc1c(F)ccc2c1c(=O)n(C[C@H]1CC[C@H](C(=O)O)CC1)c(=O)n2Cc1cccc(C(F)(F)F)c1C#N
6.50		Cc1cccc2c1c(=O)n(C[C@H]1CC[C@@H](C(=O)O)CC1)c(=O)n2Cc1cccc(C(F)(F)F)c1C#N
